From US4605660A, “Indeno[2,1-c]pyridine compounds, and their use as calcium channel blockers” (Merck & Co., Inc., priority 1985, dated 1986) come the findings set out here.

What is called inhibition is the share of the control response that was lost under treatment.

This test concerns Rat Aorta. Kind of test: Inhibition of calcium chloride-induced contraction of depolarized rat aorta (vascular smooth muscle segments in tissue bath). It is filed as cell-based, male Sprague-Dawley rats. Particulars: contraction induced by 1.0 mM calcium chloride; for inhibition at 10 µM / inhibition at 1 µM: Rattus norvegicus, read-out: Percent Inhibition of Contraction of Rat Aorta; for inhibition at 10 µM: at 10^-5 M. The method, then: The property may be observed in a test in which segments of vascular smooth muscle obtained from male Sprague-Dawley rats are suspended in physiological salt solution in a tissue bath instrumented for recording contractions. After the tissue has been equilibrated, washed in calcium-free physiological salt solution and then depolarized, 1.0 mM calcium chloride is re-added to induce contraction. […] From measuring the initial contraction as well as the second contraction in the presence of the test compound, the extent of inhibition may be calculated.

Turning to `CCOC(=O)C1=C(C)N[C@@](C)(C#N)[C@]2(C(=O)OCC)[C@@H](O)c3ccccc3[C@H]12` (relative stereo) [Compound IIIA-1, 4a(R,S),9a(S,R)-Diethyl 1-cyano-1,3-dimethyl-2,4a,9,9a-tetrahydro-9-hydroxy-9H-indeno[2,1-c]pyridine-4,9a-dicarboxylate], the inhibition at 10 µM is 84%. `COC(=O)C1=C(C)N[C@@](C)(C#N)[C@]2(C(=O)OC)[C@@H](O)c3cc(OC)ccc3[C@H]12` (relative stereo) [Compound IIIA-2, 4a(R,S),9a(S,R)-Dimethyl 1-cyano-9-hydroxy-7-methoxy-2,4a,9,9a-tetrahydro-1,3-dimethyl-9H-indeno[2,1-c]pyridine-4,9a-dicarboxylate hydrate]: the inhibition at 1 µM (at 10^-6 M) was determined as 4%. On the same count and under the same terms, next, `COC(=O)C1=C(C)N[C@](C)(C#N)[C@]2(C(=O)OC)[C@@H](O)c3cc(OC)ccc3[C@H]12` (relative stereo) [Compound IIIB-2, 4a(R,S),9a(S,R)-Dimethyl 1-cyano-9-hydroxy-7-methoxy-2,4a,9,9a-tetrahydro-1,3-dimethyl-9H-indeno[2,1-c]pyridine-4,9a-dicarboxylate]: 2%. `CCOC(=O)C1=C(C)N[C@@](C)(C#N)[C@]2(C(=O)OCC)[C@@H](OC(C)=O)c3ccccc3[C@H]12` (relative stereo) [Compound IVA-1, 4a(R,S),9a(S,R)-Diethyl 9-acetoxy-1-cyano-2,4a,9,9a-tetrahydro-1,3-dimethyl-9H-indeno[2,1-c]pyridine-4,9a-dicarboxylate]: the inhibition at 10 µM was found to be 62%.

On to `CCOC(=O)C1=C(C)N[C@](C)(C#N)[C@]2(C(=O)OCC)[C@@H](OC(C)=O)c3ccccc3[C@H]12` (relative stereo) [Compound IVB-1, 4a(R,S),9a(S,R)-Diethyl 9-acetoxy-1-cyano-2,4a,9,9a-tetrahydro-1,3-dimethyl-9H-indeno[2,1-c]pyridine-4,9a-dicarboxylate], for which the inhibition at 1 µM (at 10^-6 M) was 6%. For the compound `CCOC(=O)C1=C(C)N[C@@](C)(C#N)[C@]2(C(=O)OCC)[C@H](Cl)c3ccccc3[C@H]12` (relative stereo) [Compound V-1, 4a(R,S),9a(S,R)-Diethyl 9-chloro-1-cyano-2,4a,9,9a-tetrahydro-1,3-dimethyl-9H-indeno[2,1-c]pyridine-4,9a-dicarboxylate], the inhibition at 10 µM came out at 24%. Consider `CCOC(=O)C1=C(C)NC(C)(C#N)[C@]2(C(=O)OCC)C(O)c3ccccc3[C@H]12` (stereo partly drawn) [Compound IIIB-1, 4a(R,S),9a(S,R)-Diethyl 1-cyano-1,3-dimethyl-2,4a,9,9a-tetrahydro-9-hydroxy-9H-indeno[2,1-c]pyridine-4,9a-dicarboxylate], for which the “Percent Inhibition of Contraction of Rat Aorta” value (at 10^-6 M) was determined as 52%.
